Like-named read-outs stand apart in the source and are kept apart here.
What was measured:
Ps aeruginosa [1] = experiment: Corrected zone of inhibition of hydrated wound dressings on Poloxamer gel with MHB (biofilm bacteria); format: cell-based; details: bacteria grown in the biofilm state (poloxamer gel)
From the text: The antimicrobial dressings used in this study were ActicoatTM (Smith and Nephew) and AQUACEL® Ag Hydrofiber® (ConvaTec). Acticoat is a nanocrystalline silver antimicrobial barrier dressing which consists of a rayon/polyester non-woven inner core laminated between two layers of silver-coated high density polyethylene mesh (HDPE). The layers are held together with ultrasound […] comprised of sodium carboxymethylcellulose Hydrofiber® and ionic silver. The silver cations in AQUACEL® Ag are associated with the individual highly absorbent anionic carboxymethylcellulose fibres of the Hydrofiber® dressing. AQUACEL® Hydrofiber® dressing (without silver) was also used as a control. […] The mean dressing size was then subtracted from the mean zone of inhibition to determine the corrected zone of inhibition (CZOI). A CZOI test allows for any inherent variability in the shape and size of zones created by the silver dressings which may change in dimension following hydration.

[2] = tested on: Seven antibiotic resistant microorganisms
C. kruzei = details: poloxamer gel (biofilm state) vs without
Ps aeruginosa [3] = details: poloxamer gel (biofilm state) vs without
[4] = tested on: Pseudomonas aeruginosa, Serratia marcescens, vancomycin resistant Enterococcus (VRE) and methicillin resistant Staphylococcus aureus (MRSA); details: EDTA 0.1-40% weight by volume; planktonic and biofilm state

## O=C(O)CN(CCN(CC(=O)O)CC(=O)O)CC(=O)O [EDTA, Ethylenediaminetetra-acetic acid]
Ps aeruginosa [1]
  Effect of EDTA on the effects of ionic silver: enhances
[2]; 0.1% EDTA, any organism studied
  Zones of inhibition: no zones of inhibition were evident
[2]; 40% EDTA, all organisms tested
  Zones of inhibition: evident
[2]; poloxamer gel (biofilm state) vs without
  Zones of inhibition in the presence of poloxamer compared with planktonic: slightly smaller
Serratia marcescens; 5% EDTA
  Zones of inhibition: no zones
Serratia marcescens; 10% EDTA
  Zones of inhibition: no zones
C. kruzei
  Zones of inhibition with poloxamer compared with without: larger zones
Ps aeruginosa [3]
  Zones of inhibition with poloxamer compared with without: larger zones
[4]
  Killing of microorganisms: effective in killing

— patent US9149035B2, “Antimicrobial composition” (CONVATEC TECHNOLOGIES, INC., priority 2005, dated 2015)
